Legend:
[1] = 101.33 kPa, Liquid
[2] = xn = mol fraction of the nth substance listed; conditions: 101 kPa, Liquid

CCCCO [butan-1-ol]
[1]
Conditions	speed of sound [m/s]	viscosity [mPa·s]
293.15 K	1262.4	2.936
298.15 K	1242.6	2.542
303.15 K	1224.6	2.275
308.15 K	1207.6	1.998
313.15 K	1189.2	1.744
318.15 K	1170	1.571

NC=O [formamide] + CCC(C)O
[2]
Conditions	speed of sound [m/s]	viscosity [mPa·s]
293.15 K, x1 = 0.1043	1264.1	4.14
293.15 K, x1 = 0.2043	1295.8	4.08
293.15 K, x1 = 0.3056	1329.1	4.046
293.15 K, x1 = 0.4083	1364.5	4.041
293.15 K, x1 = 0.5093	1401.3	4.026
293.15 K, x1 = 0.6063	1438.8	3.99
293.15 K, x1 = 0.7068	1480.1	3.929
293.15 K, x1 = 0.8042	1522.5	3.859
293.15 K, x1 = 0.9024	1568	3.77
298.15 K, x1 = 0.1043	1243.5	3.044
298.15 K, x1 = 0.2043	1274.8	3.064
298.15 K, x1 = 0.3056	1308	3.113
298.15 K, x1 = 0.4083	1343.4	3.19
298.15 K, x1 = 0.5093	1380.4	3.261
298.15 K, x1 = 0.6063	1418.1	3.31
298.15 K, x1 = 0.7068	1459.9	3.338
298.15 K, x1 = 0.8042	1503.4	3.351
298.15 K, x1 = 0.9024	1550.5	3.348
303.15 K, x1 = 0.1043	1225	2.516
303.15 K, x1 = 0.2043	1256.1	2.551
303.15 K, x1 = 0.3056	1289.2	2.617
303.15 K, x1 = 0.4083	1324.7	2.713
303.15 K, x1 = 0.5093	1361.9	2.8
303.15 K, x1 = 0.6063	1400	2.869
303.15 K, x1 = 0.7068	1442.6	2.918
303.15 K, x1 = 0.8042	1487.3	2.949
303.15 K, x1 = 0.9024	1536	2.966
308.15 K, x1 = 0.1043	1204.5	2.126
308.15 K, x1 = 0.2043	1235.7	2.167
308.15 K, x1 = 0.3056	1268.9	2.239
308.15 K, x1 = 0.4083	1304.5	2.339
308.15 K, x1 = 0.5093	1341.9	2.435
308.15 K, x1 = 0.6063	1380.6	2.512
308.15 K, x1 = 0.7068	1424.4	2.571
308.15 K, x1 = 0.8042	1470.5	2.611
308.15 K, x1 = 0.9024	1521	2.639
313.15 K, x1 = 0.1043	1185.6	1.802
313.15 K, x1 = 0.2043	1216.2	1.848
313.15 K, x1 = 0.3056	1249.3	1.927
313.15 K, x1 = 0.4083	1285.3	2.035
313.15 K, x1 = 0.5093	1323.1	2.138
313.15 K, x1 = 0.6063	1362.1	2.224
313.15 K, x1 = 0.7068	1406.8	2.291
313.15 K, x1 = 0.8042	1453.9	2.338
313.15 K, x1 = 0.9024	1506.1	2.375
318.15 K, x1 = 0.1043	1167.6	1.543
318.15 K, x1 = 0.2043	1197.6	1.593
318.15 K, x1 = 0.3056	1230.7	1.677
318.15 K, x1 = 0.4083	1266.9	1.791
318.15 K, x1 = 0.5093	1305	1.903
318.15 K, x1 = 0.6063	1344.2	1.998
318.15 K, x1 = 0.7068	1389.5	2.072
318.15 K, x1 = 0.8042	1437.6	2.129
318.15 K, x1 = 0.9024	1491.3	2.175

NC=O [formamide] + CCCCO
[2]
Conditions	speed of sound [m/s]	viscosity [mPa·s]
293.15 K, x1 = 0.1093	1302.3	3.225
293.15 K, x1 = 0.2057	1337.7	3.446
293.15 K, x1 = 0.3138	1377	3.598
293.15 K, x1 = 0.4104	1412	3.696
293.15 K, x1 = 0.5115	1448.4	3.754
293.15 K, x1 = 0.6124	1484.4	3.777
293.15 K, x1 = 0.7081	1518	3.77
293.15 K, x1 = 0.8123	1554	3.744
293.15 K, x1 = 0.9086	1586.4	3.708
298.15 K, x1 = 0.1093	1281.2	2.81
298.15 K, x1 = 0.2057	1315.3	3.018
298.15 K, x1 = 0.3138	1353.7	3.181
298.15 K, x1 = 0.4104	1388.3	3.285
298.15 K, x1 = 0.5115	1424.6	3.352
298.15 K, x1 = 0.6124	1461	3.386
298.15 K, x1 = 0.7081	1495.5	3.389
298.15 K, x1 = 0.8123	1533.1	3.379
298.15 K, x1 = 0.9086	1567.9	3.355
303.15 K, x1 = 0.1093	1261.5	2.506
303.15 K, x1 = 0.2057	1294.8	2.693
303.15 K, x1 = 0.3138	1332.6	2.846
303.15 K, x1 = 0.4104	1367.1	2.947
303.15 K, x1 = 0.5115	1403.4	3.003
303.15 K, x1 = 0.6124	1440.3	3.032
303.15 K, x1 = 0.7081	1475.4	3.036
303.15 K, x1 = 0.8123	1515.3	3.019
303.15 K, x1 = 0.9086	1552.5	2.996
308.15 K, x1 = 0.1093	1243.5	2.202
308.15 K, x1 = 0.2057	1275.6	2.371
308.15 K, x1 = 0.3138	1312.7	2.516
308.15 K, x1 = 0.4104	1347	2.616
308.15 K, x1 = 0.5115	1383.6	2.676
308.15 K, x1 = 0.6124	1420.5	2.702
308.15 K, x1 = 0.7081	1456.5	2.705
308.15 K, x1 = 0.8123	1497.9	2.688
308.15 K, x1 = 0.9086	1537.2	2.671
313.15 K, x1 = 0.1093	1223.7	1.92
313.15 K, x1 = 0.2057	1255.5	2.081
313.15 K, x1 = 0.3138	1292.1	2.224
313.15 K, x1 = 0.4104	1326	2.324
313.15 K, x1 = 0.5115	1362.6	2.388
313.15 K, x1 = 0.6124	1399.8	2.418
313.15 K, x1 = 0.7081	1437	2.426
313.15 K, x1 = 0.8123	1479.9	2.423
313.15 K, x1 = 0.9086	1521.9	2.413
318.15 K, x1 = 0.1093	1203.3	1.725
318.15 K, x1 = 0.2057	1234.5	1.874
318.15 K, x1 = 0.3138	1270.8	2.008
318.15 K, x1 = 0.4104	1305	2.106
318.15 K, x1 = 0.5115	1341.3	2.167
318.15 K, x1 = 0.6124	1379.1	2.204
318.15 K, x1 = 0.7081	1417.5	2.217
318.15 K, x1 = 0.8123	1461.9	2.216
318.15 K, x1 = 0.9086	1506.6	2.216
